This is an account of results in ChEMBL document CHEMBL3351224 (ACS Med Chem Lett, 2014).

The target of data set [1] is T1, Cysteinyl leukotriene receptor 1 (Homo sapiens, UniProt Q9Y271).
T1 sequence (Q9Y271 whole entry): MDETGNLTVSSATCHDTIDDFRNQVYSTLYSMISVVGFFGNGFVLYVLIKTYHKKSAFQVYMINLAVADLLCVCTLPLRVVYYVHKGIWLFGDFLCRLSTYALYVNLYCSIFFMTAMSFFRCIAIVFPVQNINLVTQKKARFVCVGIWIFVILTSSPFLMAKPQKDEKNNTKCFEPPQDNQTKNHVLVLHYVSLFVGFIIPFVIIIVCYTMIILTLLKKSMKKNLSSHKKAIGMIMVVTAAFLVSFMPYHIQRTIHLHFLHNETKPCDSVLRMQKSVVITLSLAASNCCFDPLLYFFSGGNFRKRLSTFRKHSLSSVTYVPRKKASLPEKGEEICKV
As to the kind of experiment: Antagonist activity at human CysLT1 receptor expressed in CHO cells assessed as inhibition of LTD4-inudced intracellular calcium influx preincubated for 30 mins before LTD4 addition by Fura2-AM assay. Format: functional, cell-based.

Data set [2] has as its target T2, Cysteinyl leukotriene receptor 2 (Homo sapiens) (UniProt Q9NS75).
T2 sequence (whole entry): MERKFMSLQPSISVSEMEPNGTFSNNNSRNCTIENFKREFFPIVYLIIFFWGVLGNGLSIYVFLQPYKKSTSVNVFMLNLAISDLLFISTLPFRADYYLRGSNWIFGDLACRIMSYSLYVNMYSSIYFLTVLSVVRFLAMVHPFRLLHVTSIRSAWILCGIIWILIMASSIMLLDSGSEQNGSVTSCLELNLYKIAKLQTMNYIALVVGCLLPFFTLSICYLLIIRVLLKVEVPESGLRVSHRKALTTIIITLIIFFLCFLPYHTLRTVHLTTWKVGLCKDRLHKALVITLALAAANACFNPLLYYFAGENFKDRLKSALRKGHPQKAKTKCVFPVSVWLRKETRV
Briefly: Antagonist activity at human CysLT2 receptor expressed in HEK293 cells assessed as inhibition of LTD4-inudced intracellular calcium influx preincubated at 10 uM for 30 mins before LTD4 addition by Fura2-AM assay. Format: functional, cell-based. In general terms: Calcium flux is commonly read through the fluorescence of an indicator in the cells.

Data set [3] deals with T3, Cysteinyl leukotriene receptor 2 (Homo sapiens, UniProt Q9NS75).
T3 sequence (Q9NS75 whole entry): T2 sequence (whole entry)
As to the kind of experiment: Antagonist activity at human CysLT2 receptor expressed in HEK293 cells assessed as inhibition of LTD4-inudced intracellular calcium influx preincubated for 30 mins before LTD4 addition by Fura2-AM assay. Format: functional, cell-based.

Data set [4] can be described thus: Clearance in rat at 1 mg/kg, iv. The following applies: in vivo. The data set is classed as ADME, organism-based. Details: dose 1 mg/kg, route intravenous.
Data set [5] can be described thus: Oral bioavailability in rat at 30 mg/kg. The data set is classed as ADME, organism-based. The settings on record: in vivo.
Data set [6] in a line: AUC in rat at 30 mg/kg, po. The data set is classed as ADME, organism-based. Details: dose 30 mg/kg, route oral. The following applies: plasma.
Data set [7] can be described thus: Half life in rat at 1 mg/kg, iv. The data set is classed as ADME, organism-based. Details: dose 1 mg/kg, route intravenous. The following applies: in vivo.

A value given as a limit tells only on which side of the number the result lay.

Regarding `O=C(Nc1ccc2c(c1)OC(C(=O)O)CN2)c1ccc(OCCCCc2ccccc2)cc1` (configuration not stated), in data set [1], the IC50 – broadly, the midpoint of a concentration-inhibition curve – was found to be 4600 nM. The inhibition (commonly the relative decrease from the control value, in per cent) in data set [2] is 36%.
As for `O=C(O)CCCN1CC(C(=O)O)Oc2c(NC(=O)c3ccc(OCCCc4ccccc4)cc3)cccc21` (configuration not stated), the IC50 in data set [1] came out at 1300 nM; in data set [3], 68 nM.
Consider `CCN(CC)C(=O)/C=C(\C)c1ccc2oc(C(=O)c3ccc(C#N)cc3)c(NC(=O)/C(C#N)=C(/C)O)c2c1`, for which the values for the IC50 in data set [1] and in data set [3] were 9700 nM and 7700 nM, respectively.
For `CCCC(=O)N1CC(C(=O)O)Oc2c(NC(=O)c3ccc(OCCCCc4ccccc4)cc3)cccc21` (configuration not stated), the IC50 in data set [1] turned out to be 300 nM; in data set [3], 3700 nM.
Turning to `O=C(O)CCCN1CC(C(=O)O)Oc2c(NC(=O)c3ccc(OCCCCc4ccccc4)cc3)cccc21` (configuration not stated), the clearance (commonly the rate of elimination divided by the concentration) in data set [4] was determined as 4.7 mL/min/kg. Also, in data set [5], the bioavailability – broadly, the share of a dose that reaches the circulation, judged against a reference dose that is usually intravenous – was found to be 1.5%. The exposure (AUC) (as a rule, concentration integrated over time) in data set [6] is 1600 ng·h/mL. The half-life (as a rule, the time needed for the level to fall by half in the phase considered) in data set [7] was 3.4 h.
`O=C(O)CCCN1CC(C(=O)O)Oc2c(NC(=O)c3ccc(OCCCCOc4ccccc4)cc3)cccc21` (configuration not stated): the 50% inhibitory concentration (IC50) in data set [1] was 32 nM; in data set [3] it was 17 nM.
As for `O=C(O)CCCCN1CC(C(=O)O)Oc2c(NC(=O)c3ccc(OCCCCc4ccccc4)cc3)cccc21` (configuration not stated), the IC50 worked out at 44 nM in data set [1] and 170 nM in data set [3].
For `O=C(Nc1cccc2c1OC(C(=O)O)CN2)c1ccc(OCCCCc2ccccc2)cc1` (configuration not stated) the same measures were 54 nM and 4600 nM.
With `O=C(O)CCCN1CC(C(=O)O)Oc2c(NC(=O)c3ccc(OCCOc4ccccc4)cc3)cccc21` (configuration not stated), the IC50 is 3000 nM in data set [1] and 1500 nM in data set [3].
The like results for `O=C(O)c1ccc(OCCCc2ccc(OCCCCOc3ccccc3)cc2)c(C(=O)NC2CCCC(C(=O)O)C2)c1` (configuration not stated) were, in that order, > 2500 nM and 53 nM.
For `O=C(O)CCCC(=O)N1CC(C(=O)O)Oc2c(NC(=O)c3ccc(OCCCCc4ccccc4)cc3)cccc21` (configuration not stated) the same measures were < 1 nM and 1800 nM.
For `O=C(O)CCCN1CC(C(=O)O)Oc2c(NC(=O)c3ccc(OCCCCCc4ccccc4)cc3)cccc21` (configuration not stated) the same measures were 120 nM and 0.62 nM.
For the compound `CC(=O)N1CC(C(=O)O)Oc2c(NC(=O)c3ccc(OCCCCc4ccccc4)cc3)cccc21` (configuration not stated), the IC50 came to 13 nM in data set [1] and 3600 nM in data set [3].
For the compound `O=C(Nc1ccc2c(c1)NCC(C(=O)O)O2)c1ccc(OCCCCc2ccccc2)cc1` (configuration not stated), the IC50 in data set [1] was determined as 840 nM. Moreover, the inhibition in data set [2] was found to be 25%.
For `CCC(=O)N1CC(C(=O)O)Oc2c(NC(=O)c3ccc(OCCCCc4ccccc4)cc3)cccc21` (configuration not stated), the IC50 in data set [1] is 150 nM; in data set [3], 5200 nM.
With `O=C(O)CCCCCN1CC(C(=O)O)Oc2c(NC(=O)c3ccc(OCCCCc4ccccc4)cc3)cccc21` (configuration not stated), the results for the IC50 in data set [1] and in data set [3] were 130 nM and 290 nM, respectively.
For the compound `CCCCC/C=C\C\C=C/C=C/C=C/[C@@H](Sc1ccc(C(=O)O)cc1)[C@@H](O)CCCC(=O)O`, the IC50 in data set [1] came out at 440 nM; in data set [3], 300 nM.
On to `O=C(O)CCCN1CC(C(=O)O)Oc2c(NC(=O)c3ccc(OCCCOc4ccccc4)cc3)cccc21` (configuration not stated), for which the IC50 in data set [1] was determined as 290 nM; in data set [3] it was 16 nM.
The like results for `O=C(O)CCCCC(=O)N1CC(C(=O)O)Oc2c(NC(=O)c3ccc(OCCCCc4ccccc4)cc3)cccc21` (configuration not stated) were, in that order, 12 nM and 890 nM.
As for `O=C(O)CCC(=O)N1CC(C(=O)O)Oc2c(NC(=O)c3ccc(OCCCCc4ccccc4)cc3)cccc21` (configuration not stated), the IC50 in data set [1] stood at 1.4 nM; in data set [3] it was 890 nM.
